The text below walks through data of article PMC6406258, “The ROMP: A Powerful Approach to Synthesize Novel pH-Sensitive Nanoparticles for Tumor Therapy” (Biomolecules, 2019).

As a reminder, the half-life is the time in which the quantity being followed falls by half.

This data set can be described thus: Hydrolysis of pro-drugs at biologically relevant pHs (half-lives). The class given is physicochemical. The source says:
The behaviors of the eight pro-drugs synthesized were then validated by hydrolysis at various biologically relevant pHs: 4.3, 5.0, 6.0 for the pHs that can be found in acidic vesicles at various maturation degrees, and at pH 7.3 for the physiological and neutral pH. As one can see, the R substituent on the phenyl group is highly important for the modulation of the kinetics of the release. In the case of the two hydroxamic acid pro-drugs, the best system appeared to be the di-p-toluyl one (R=Me), with a half-life of 10–20 h at the moderately acidic pH of lysosomes. Other solutions were too stable or rapidly hydrolyzed. In the case of the benzamide drug, the best system was the diphenyl one (R=H). When a group with an electron donating effect was present on the phenyl rings, the benzamide pro-drugs were decomposed very quickly in a time range that limit the accurateness of the kinetic measurements.
The synthesis of pro-drugs (Scheme 1), the determination of the hydrolysis rates of pro-drugs in mildly acidic pH [25, 26], the pro-drug-functionalized macromonomer-PEO-CI994 (17), the pro-drug-functionalized macro-monomer-PEO-SAHA (16), the pro-drug-functionalized macro-monomer-PEO-NODH (15), and the synthesis of the pro-drug functionalized nanoparticles (NPs) (Figure 1), and the biological tests are developed in the supporting information part.

Where [1] appears, read: buffer, pH 4.3, read-out: Half-life (converted).
The mark [2] stands for this setting: buffer, pH 7.3, read-out: Half-life (converted).
The mark [3] stands for this setting: buffer, pH 6.0, read-out: Half-life (converted).
Where [4] appears, read: buffer, pH 5.0, read-out: Half-life (converted).

Structures are written as SMILES. Where two headings read alike, the source gives them in different places.

As for `C#CCOCCOCCOCCOCCn1cc(C(ONC(=O)CCCCCCC(=O)Nc2ccccc2)(c2ccc(C)cc2)c2ccc(C)cc2)nn1` [Compound 6b], the half-life reads like this: under setting [1], 20 h; under setting [2], 96 h; under setting [3], 80 h.
As to `C#CCOCCOCCOCCOCCn1cc(C(Nc2ccccc2NC(=O)c2ccc(NC(C)=O)cc2)(c2ccc(C)cc2)c2ccc(C)cc2)nn1` [Compound 7b], the half-life runs as follows: under setting [1], < 0.0167 h; under setting [4], 0.2 h; under setting [3], 0.167 h.
Consider `C#CCOCCOCCOCCOCCn1cc(C(ONC(=O)CCCCCCC(=O)Nc2ccccc2)(c2ccccc2)c2ccccc2)nn1` [Compound 6a], for which the half-life result runs as follows: (pH 4.3, result in words) “Stable”; (pH 5.0, result in words) “Stable”; (pH 6.0, result in words) “Stable”; (pH 7.3, result in words) “Stable”.
As to `C#CCOCCOCCOCCOCCn1cc(C(Nc2ccccc2NC(=O)c2ccc(NC(C)=O)cc2)(c2ccccc2)c2ccccc2)nn1` [Compound 7a], the half-life was 6.67 h under setting [4] and 48 h under setting [3].
`C#CCOCCOCCOCCOCCn1cc(C(ONC(=O)/C=C/C(C)=C/C2(C)Oc3cc(N(C)C)ccc3C2=O)(c2ccccc2)c2ccccc2)nn1` (stereo not shown) [Compound 8a]: the half-life entry is, setting by setting: (pH 4.3, result in words) “stable”; (pH 5.0, result in words) “stable”; (pH 7.3, result in words) “Stable”.
`C#CCOCCOCCOCCOCCn1cc(C(ONC(=O)CCCCCCC(=O)Nc2ccccc2)(c2ccc(OC)cc2)c2ccc(OC)cc2)nn1` [Compound 6c]: the half-life by setting is: under setting [1], 0.5 h; under setting [2], 0.567 h; under setting [4], 1.33 h; under setting [3], 1.8 h.
For `C#CCOCCOCCOCCOCCn1cc(C(Nc2ccccc2NC(=O)c2ccc(NC(C)=O)cc2)(c2ccc(OC)cc2)c2ccc(OC)cc2)nn1` [Compound 7c], the half-life was < 0.0167 h under setting [1], < 0.0833 h under setting [4] and < 0.0833 h under setting [3].
